Source: ChEMBL document CHEMBL1201862, “PubChem BioAssay data set” (2004)
Activity calls are given as the source filed them.

Columns and labels:
[1] = test system: Vero; test: host cell cytotoxicity of antiviral hits, dose response, cytotoxicity control for West Nile virus antiviral project, secondary assay (AID 1650); type: functional; details: Chlorocebus sabaeus
[2] = target: Peroxisome proliferator-activated receptor gamma/Nuclear receptor coactivator 1 (Homo sapiens, UniProt P37231); type: functional;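 note: agonist potency as compounds enhance coactivator SRC-1 recruitment to PPARgamma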
[3] = target: Peroxisome proliferator-activated receptor gamma/Nuclear receptor coactivator 3 (Homo sapiens, UniProt P37231); type: functional;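 note: agonist potency for raising coactivator recruitment to the receptor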
[4] = target: Peroxisome proliferator-activated receptor gamma/Nuclear receptor coactivator 2 (Homo sapiens, UniProt P37231); type: functional;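 note: agonist potency for raising coactivator recruitment to the receptor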
[5] = Dose-response inhibition of insulin secretion in a rat insulinoma line at 5 mM glucose (AID 1117331); type: functional, cell-based; details: INS-1E
[6] = HepG2 cell cytotoxicity, dose response, cytotoxicity control, plate reader, dry powder samples (AID 1159569); type: functional, cell-based;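 note: inhibitor potency with signal falling toward the positive control level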
[7] = P. falciparum 3D7-ScDHODH growth inhibitors, dose response, SYBR Green, dry powder samples (AID 1159570); type: functional, cell-based;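 note: parasite growth measured after 72 hours of compound exposure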
[8] = P. falciparum Dd2 growth inhibitors, dose response, SYBR Green, cherry-picked samples (AID 1159567); type: functional, cell-based
[9] = P. falciparum Dd2 growth inhibitors, dose response, SYBR Green, dry powder samples (AID 1159566); type: functional, cell-based;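 note: potency for growth inhibition with lower SYBR green DNA signal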
[10] = P. falciparum ATP4 D1247Y mutant growth inhibitors, dose response, NITD609-resistant line, SYBR Green, dry powder (AID 1159571); type: functional, cell-based;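 note: parasites synchronized at ring stage by sorbitol before testing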
[11] = cytotoxicity in KRAS-transformed pancreatic duct cells, primary screen, cell-based, fluorescence, HTS (AID 431); type: functional; details: Homo sapiens;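 note: cell line used: HPDE-C7K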
[12] = cytotoxicity in HPDE-C7 cells, cell-based, fluorescence, HTS (AID 430); type: functional; details: Homo sapiens
[13] = target: T1, Aryl hydrocarbon receptor (Homo sapiens, UniProt P35869); test: Luminescence-based cell-based high throughput dose response assay for activators of the Aryl Hydrocarbon Receptor (AHR). [Related pubchem assays: 2796 (Primary screen (AHR activators in singlicate)), 2845 (Confirmation screen (AHR activators in triplicate)), 434939 (Counterscreen (PXR activators in triplicate)), 2804 (Summary (AHR activators))]; type: ADME
T1 sequence (P35869 whole entry): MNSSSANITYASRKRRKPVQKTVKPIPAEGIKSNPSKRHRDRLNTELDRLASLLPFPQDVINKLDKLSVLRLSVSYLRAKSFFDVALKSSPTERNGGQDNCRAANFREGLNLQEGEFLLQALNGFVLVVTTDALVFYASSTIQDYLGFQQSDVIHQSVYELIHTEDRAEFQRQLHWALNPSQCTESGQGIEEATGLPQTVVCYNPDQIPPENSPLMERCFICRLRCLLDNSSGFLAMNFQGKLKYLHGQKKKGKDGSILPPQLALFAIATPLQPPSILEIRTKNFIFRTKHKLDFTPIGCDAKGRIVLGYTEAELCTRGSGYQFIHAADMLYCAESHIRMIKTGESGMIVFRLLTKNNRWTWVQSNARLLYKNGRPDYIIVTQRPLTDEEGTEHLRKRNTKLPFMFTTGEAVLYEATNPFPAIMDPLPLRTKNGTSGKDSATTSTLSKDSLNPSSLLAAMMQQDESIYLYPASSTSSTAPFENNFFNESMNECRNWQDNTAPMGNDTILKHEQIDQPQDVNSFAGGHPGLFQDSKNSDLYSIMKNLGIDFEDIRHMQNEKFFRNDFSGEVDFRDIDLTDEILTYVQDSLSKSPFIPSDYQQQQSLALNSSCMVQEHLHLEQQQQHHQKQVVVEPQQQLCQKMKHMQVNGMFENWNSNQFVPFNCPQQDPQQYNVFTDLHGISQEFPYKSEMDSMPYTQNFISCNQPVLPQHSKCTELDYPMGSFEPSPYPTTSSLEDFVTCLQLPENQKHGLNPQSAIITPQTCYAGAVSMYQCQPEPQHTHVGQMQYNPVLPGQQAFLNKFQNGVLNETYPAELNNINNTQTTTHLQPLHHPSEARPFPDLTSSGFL

[14] = M. tuberculosis H37Rv growth inhibitors, H37Rv strain (AID 1626); type: functional
[15] = target: T2, Rac GTPase-activating protein 1 (Homo sapiens, UniProt Q9H0H5); test: MgcRacGAP GTPase-activating activity inhibitors, confirmation, biochemical, ADP Hunter fluorescence, primary and confirmatory (AID 624330); type: functional
T2 sequence (Q9H0H5 whole entry): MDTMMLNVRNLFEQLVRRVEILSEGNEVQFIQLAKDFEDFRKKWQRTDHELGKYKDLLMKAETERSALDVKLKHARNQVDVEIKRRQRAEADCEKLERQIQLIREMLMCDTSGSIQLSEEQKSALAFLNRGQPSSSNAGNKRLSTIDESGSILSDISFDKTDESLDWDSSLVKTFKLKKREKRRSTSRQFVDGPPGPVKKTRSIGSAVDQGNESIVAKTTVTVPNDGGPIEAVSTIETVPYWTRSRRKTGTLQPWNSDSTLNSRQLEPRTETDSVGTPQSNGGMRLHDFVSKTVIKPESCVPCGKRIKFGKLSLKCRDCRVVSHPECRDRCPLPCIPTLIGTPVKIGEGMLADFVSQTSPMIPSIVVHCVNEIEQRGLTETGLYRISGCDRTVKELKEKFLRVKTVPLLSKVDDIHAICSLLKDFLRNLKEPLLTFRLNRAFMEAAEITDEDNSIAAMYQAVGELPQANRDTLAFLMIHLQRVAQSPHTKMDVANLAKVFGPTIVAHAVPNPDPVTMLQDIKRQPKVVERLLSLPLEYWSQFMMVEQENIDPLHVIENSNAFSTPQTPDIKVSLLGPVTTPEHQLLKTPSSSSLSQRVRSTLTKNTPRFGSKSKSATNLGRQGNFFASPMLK

[16] = target: T3, Neuropeptide Y receptor type 2 (Homo sapiens, UniProt P49146); type: functional, cell-based;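 note: HEK293 cells expressing the receptor and a CNG channel; stimulus was NPY near EC95 followed by isoproterenol to raise cAMP; antagonist potency measured as restoring cAMP signal that NPY suppresses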
T3 sequence (P49146 whole entry): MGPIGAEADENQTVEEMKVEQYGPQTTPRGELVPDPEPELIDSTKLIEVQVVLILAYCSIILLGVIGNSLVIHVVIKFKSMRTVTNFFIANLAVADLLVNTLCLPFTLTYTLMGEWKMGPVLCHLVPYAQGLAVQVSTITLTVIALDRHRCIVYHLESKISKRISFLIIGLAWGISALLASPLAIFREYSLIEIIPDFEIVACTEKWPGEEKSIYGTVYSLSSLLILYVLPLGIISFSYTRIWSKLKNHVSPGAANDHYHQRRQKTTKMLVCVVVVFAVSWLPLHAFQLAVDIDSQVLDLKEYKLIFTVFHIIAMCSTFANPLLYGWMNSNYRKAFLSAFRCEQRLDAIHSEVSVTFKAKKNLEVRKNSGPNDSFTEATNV

[17] = target: T4, Neuropeptide Y receptor type 1 (Homo sapiens, UniProt P25929); type: functional;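 note: HEK293 cells with a CNG channel challenged with NPY then isoproterenol; potency as antagonist that reverses NPY suppression of cAMP signal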
T4 sequence (P25929 whole entry): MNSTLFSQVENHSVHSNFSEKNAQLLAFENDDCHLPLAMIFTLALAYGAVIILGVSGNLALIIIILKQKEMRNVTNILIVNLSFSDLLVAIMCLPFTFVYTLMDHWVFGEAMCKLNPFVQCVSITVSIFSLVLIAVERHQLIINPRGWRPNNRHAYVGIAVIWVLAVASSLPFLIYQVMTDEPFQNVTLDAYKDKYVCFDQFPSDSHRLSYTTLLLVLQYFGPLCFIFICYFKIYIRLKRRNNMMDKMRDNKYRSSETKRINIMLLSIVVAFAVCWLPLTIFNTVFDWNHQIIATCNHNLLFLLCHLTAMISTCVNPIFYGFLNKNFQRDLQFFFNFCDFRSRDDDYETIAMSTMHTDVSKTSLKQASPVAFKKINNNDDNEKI

[18] = A2780 ovarian cancer cell cytotoxicity, dose response, cytotoxicity control, plate reader, dry powder samples (AID 743046); type: functional, cell-based
[19] = cytotoxicity in OVCAR8 ovarian cancer cells, dose response, PAX8 project, cell-based, plate reader, dry powder samples (AID 743197); type: functional; details: OVCAR-8
[20] = IGROV1 ovarian cancer cell cytotoxicity, dose response, PAX8 inhibitor project, plate reader, dry powder samples (AID 743043); type: functional, cell-based; details: IGROV-1
[21] = NIH:OVCAR-3 ovarian cancer cell cytotoxicity, dose response, PAX8 inhibitor project, plate reader, dry powder samples (AID 743044); type: functional, cell-based
[22] = target: Paired box protein Pax-8 (Homo sapiens, UniProt Q06710); test: inhibitors of PAX8-driven TPO luciferase reporter, dose response, RMG-I cells, cherry-pick (AID 687027); type: functional, cell-based;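 note: luciferase reporter driven by Pax8 target thyroperoxidase promoter measured by SteadyGlo luminescence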
[23] = IOSE-T80 ovarian epithelial cell cytotoxicity, dose response, cytotoxicity control for PAX8 inhibitor project, plate reader, dry powder samples (AID 743045); type: functional, cell-based

Chain of Peroxisome proliferator-activated receptor gamma/Nuclear receptor coactivator 3 (P37231 whole entry): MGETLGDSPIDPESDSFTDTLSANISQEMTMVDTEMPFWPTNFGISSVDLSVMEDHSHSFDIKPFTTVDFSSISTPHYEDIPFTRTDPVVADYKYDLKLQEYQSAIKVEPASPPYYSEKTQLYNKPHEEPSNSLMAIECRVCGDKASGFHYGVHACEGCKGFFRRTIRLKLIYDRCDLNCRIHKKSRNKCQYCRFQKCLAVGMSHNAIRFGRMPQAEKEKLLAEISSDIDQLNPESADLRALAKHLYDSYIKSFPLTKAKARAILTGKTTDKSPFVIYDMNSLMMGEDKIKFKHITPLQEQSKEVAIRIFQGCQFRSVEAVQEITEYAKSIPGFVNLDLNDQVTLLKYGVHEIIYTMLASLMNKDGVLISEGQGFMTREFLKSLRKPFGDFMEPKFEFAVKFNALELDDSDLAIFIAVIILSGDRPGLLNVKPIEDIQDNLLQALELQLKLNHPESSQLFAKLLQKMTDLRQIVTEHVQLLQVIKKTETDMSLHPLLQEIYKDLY
Chain of Peroxisome proliferator-activated receptor gamma/Nuclear receptor coactivator 3 (Q9Y6Q9 whole entry, further chain): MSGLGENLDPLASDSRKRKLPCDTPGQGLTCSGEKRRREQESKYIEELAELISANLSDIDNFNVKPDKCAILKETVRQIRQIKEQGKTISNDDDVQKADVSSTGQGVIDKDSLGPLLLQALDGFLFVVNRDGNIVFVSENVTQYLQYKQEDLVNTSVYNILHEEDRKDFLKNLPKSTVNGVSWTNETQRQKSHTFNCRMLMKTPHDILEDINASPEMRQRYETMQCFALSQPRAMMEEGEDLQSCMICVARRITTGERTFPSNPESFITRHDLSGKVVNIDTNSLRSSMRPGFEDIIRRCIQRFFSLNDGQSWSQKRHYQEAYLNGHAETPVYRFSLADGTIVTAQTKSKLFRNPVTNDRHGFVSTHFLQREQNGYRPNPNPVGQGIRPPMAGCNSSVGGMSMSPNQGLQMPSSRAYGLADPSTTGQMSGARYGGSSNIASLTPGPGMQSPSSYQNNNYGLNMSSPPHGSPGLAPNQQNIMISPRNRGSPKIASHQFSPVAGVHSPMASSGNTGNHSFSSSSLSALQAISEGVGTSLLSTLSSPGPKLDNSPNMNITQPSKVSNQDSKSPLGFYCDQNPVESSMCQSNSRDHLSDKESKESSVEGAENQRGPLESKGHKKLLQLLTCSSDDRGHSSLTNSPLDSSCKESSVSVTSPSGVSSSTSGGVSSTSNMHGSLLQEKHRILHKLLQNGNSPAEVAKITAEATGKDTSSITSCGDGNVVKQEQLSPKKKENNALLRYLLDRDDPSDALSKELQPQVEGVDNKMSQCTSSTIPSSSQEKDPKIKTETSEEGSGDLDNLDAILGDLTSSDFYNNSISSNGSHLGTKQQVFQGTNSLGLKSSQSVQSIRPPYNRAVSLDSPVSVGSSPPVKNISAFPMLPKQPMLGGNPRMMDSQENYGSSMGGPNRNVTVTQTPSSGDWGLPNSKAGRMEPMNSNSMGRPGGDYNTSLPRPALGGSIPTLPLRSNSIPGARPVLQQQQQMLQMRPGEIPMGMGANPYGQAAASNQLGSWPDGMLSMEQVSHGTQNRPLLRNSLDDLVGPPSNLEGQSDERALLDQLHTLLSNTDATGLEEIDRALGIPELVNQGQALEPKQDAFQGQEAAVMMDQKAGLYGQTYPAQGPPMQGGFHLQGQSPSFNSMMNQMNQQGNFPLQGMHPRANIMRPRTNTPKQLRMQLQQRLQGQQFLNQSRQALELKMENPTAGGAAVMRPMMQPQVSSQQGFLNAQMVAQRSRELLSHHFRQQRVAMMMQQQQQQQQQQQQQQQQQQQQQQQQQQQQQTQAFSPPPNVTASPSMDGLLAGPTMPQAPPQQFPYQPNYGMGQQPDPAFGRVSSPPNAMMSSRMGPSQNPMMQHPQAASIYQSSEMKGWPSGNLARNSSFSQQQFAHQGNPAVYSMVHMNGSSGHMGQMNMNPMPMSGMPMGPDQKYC
Chain of Peroxisome proliferator-activated receptor gamma/Nuclear receptor coactivator 1 (P37231 whole entry): as the sequence (P37231 whole entry) above
Chain of Peroxisome proliferator-activated receptor gamma/Nuclear receptor coactivator 1 (Q15788 whole entry, further chain): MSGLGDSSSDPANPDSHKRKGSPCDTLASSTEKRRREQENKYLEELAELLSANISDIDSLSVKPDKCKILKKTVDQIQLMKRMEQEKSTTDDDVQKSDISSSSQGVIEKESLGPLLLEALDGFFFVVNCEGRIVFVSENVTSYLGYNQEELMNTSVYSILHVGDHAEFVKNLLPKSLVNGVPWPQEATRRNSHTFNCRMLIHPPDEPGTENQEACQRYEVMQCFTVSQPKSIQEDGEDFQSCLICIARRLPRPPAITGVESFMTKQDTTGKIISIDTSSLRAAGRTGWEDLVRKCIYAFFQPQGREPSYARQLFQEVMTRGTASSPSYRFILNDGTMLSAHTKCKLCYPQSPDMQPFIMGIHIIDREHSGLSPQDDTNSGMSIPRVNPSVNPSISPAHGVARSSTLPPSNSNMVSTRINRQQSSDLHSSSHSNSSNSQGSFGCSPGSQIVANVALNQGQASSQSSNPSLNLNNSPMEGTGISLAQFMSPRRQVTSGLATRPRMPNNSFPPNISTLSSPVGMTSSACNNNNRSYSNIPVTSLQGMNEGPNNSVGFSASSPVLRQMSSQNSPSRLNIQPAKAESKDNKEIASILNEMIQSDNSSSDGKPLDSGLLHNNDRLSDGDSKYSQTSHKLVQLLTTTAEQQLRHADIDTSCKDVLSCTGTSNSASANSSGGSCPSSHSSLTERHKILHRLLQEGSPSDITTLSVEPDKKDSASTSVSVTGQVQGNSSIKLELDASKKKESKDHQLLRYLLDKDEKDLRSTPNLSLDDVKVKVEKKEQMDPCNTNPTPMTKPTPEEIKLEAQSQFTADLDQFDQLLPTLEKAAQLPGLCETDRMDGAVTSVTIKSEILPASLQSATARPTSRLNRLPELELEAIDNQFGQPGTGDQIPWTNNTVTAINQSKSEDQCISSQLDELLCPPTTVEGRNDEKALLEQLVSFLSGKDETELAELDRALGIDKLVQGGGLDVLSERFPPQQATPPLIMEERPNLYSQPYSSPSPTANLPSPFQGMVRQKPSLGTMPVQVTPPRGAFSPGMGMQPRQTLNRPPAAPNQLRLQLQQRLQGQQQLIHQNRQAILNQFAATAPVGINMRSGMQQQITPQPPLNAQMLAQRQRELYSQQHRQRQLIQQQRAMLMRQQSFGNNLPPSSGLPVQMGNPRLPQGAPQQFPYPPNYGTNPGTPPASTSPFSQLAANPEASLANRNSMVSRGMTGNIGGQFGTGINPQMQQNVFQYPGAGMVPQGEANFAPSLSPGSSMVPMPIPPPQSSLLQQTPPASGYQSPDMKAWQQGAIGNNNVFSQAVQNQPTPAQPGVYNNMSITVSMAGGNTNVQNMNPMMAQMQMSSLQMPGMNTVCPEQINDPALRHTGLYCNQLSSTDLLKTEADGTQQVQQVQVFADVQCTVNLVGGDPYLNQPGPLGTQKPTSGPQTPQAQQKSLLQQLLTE
Chain of Paired box protein Pax-8 (Q06710 whole entry): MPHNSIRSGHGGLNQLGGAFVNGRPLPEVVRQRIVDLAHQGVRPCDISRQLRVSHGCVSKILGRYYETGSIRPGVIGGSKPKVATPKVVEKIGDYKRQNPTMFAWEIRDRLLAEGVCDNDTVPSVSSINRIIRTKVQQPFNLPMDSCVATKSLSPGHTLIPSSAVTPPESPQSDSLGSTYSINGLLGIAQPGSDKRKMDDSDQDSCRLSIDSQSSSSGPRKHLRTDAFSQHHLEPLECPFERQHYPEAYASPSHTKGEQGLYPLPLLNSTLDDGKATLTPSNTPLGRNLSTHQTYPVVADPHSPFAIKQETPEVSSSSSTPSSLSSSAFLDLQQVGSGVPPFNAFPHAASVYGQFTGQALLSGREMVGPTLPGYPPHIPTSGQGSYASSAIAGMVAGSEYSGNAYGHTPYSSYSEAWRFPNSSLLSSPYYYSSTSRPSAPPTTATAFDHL

Compound: COc1ccc(NC(=O)CSc2ccc3c4c(cccc24)C(=O)c2ccccc2-3)cc1
- CC50 [1]: 71.7 µM (active)
- EC50 [2]: > 79.4 µM (not active)
- EC50 [3]: > 79.4 µM (not active)
- EC50 [4]: > 79.4 µM (not active)

Compound: CCO[C@H](Cc1ccc(OCCc2ccc(OS(C)(=O)=O)cc2)cc1)C(=O)O
- IC50 [5]: > 33.3 µM (inactive)

Compound: N#Cc1ccc(-c2ccc([C@@H]3[C@@H]4CN(C(=O)C5CCCCC5)C[C@H]3N4)cc2)cc1
- AC50 [6]: 23.8 µM (active)
- AC50 [7]: 2.4 µM (active)
- AC50 [8]: 2.79 µM (active)
- AC50 [9]: 1.34 µM (active)
- AC50 [10]: 2.85 µM (active)

Compound: CC(C)(C)NC(=O)C1N(c2cccnc2)C(=O)C2C(C(=O)Nc3ccccc3F)C3(C)C=CC21O3 (centres undefined)
- EC50 [11]: > 20 µM (not active)
- EC50 [12]: > 20 µM (not active)

Compound: CCOc1ccccc1NC(=O)c1ccc2nccnc2c1
- EC50 [13]: 2.21 µM (active)

Compound: CC(C)c1ccc(NC(=O)COc2ccc(C3SCCS3)cc2)cc1
- IC50 [14]: > 100 µM (active)

Compound: O=C1c2ccccc2C(=O)C1c1ccc(O)cc1
- IC50 [15]: 172 µM (active)
- EC50 [2]: > 79.4 µM (not active)
- EC50 [3]: > 79.4 µM (not active)
- EC50 [4]: > 79.4 µM (not active)

Compound: Cc1cccc(C)c1NC(=S)Nc1c(C)n(C)n(-c2ccccc2)c1=O
- EC50 [2]: > 79.4 µM (not active)
- EC50 [3]: > 79.4 µM (not active)
- EC50 [4]: > 79.4 µM (not active)

Compound: COc1ccc(-n2nc(C(=O)Nc3ccc4c(c3)OCO4)c3ccccc3c2=O)cc1
- IC50 [16]: 7.17 µM (active)
- IC50 [17]: 7.16 µM (active)

Compound: C[C@H](CO)N1C[C@H](C)[C@@H](CN(C)Cc2ccccc2)OCCCC[C@H](C)Oc2ccc(NC(=O)Nc3ccc(C(F)(F)F)cc3)cc2C1=O
- AC50 [18]: 36.2 µM (active)
- AC50 [19]: 25.2 µM (active)
- AC50 [20]: 22.4 µM (active)
- AC50 [21]: 16.7 µM (active)
- AC50 [22]: 13.5 µM (active)
- AC50 [23]: 39.8 µM (active)
